Data published in patent publication US10912777B2 (Academia Sinica, priority 2016, dated 2021).
Where two headings read alike, the source gives them in different places.

How the values were obtained:
SK-hep1 cells = experiment: Cell viability assay (ALAMAR BLUE), SK-hep1 cells with or without ectopic SLC29A2; format: cell-based
Protocol: HCC cell lines (Sk-hep1 and Mahlavu) were maintained in Dulbecco's modified Eagle's medium (DMEM) with 10% fetal bovine serum, 1% non-essential amino acid, 1% L-glutamine, and 1% penicillin/streptomycin. All cells were tested for mycoplasma contamination.
pcDNA3.0/HA˜SLC29A2 was generated according to Chen et al. (2010) (Hepatologs, 52(5), 1690-1701), To stably express SLC29A2 or STAT3D, HCC cell lines were transfected with the plasmid according to the instruction manual by JetPrime transfection reagent (Polyplus), and further selected in the presence of G418 (SK-hep1: 800 μg/mL, Mahlavu: 500 μg/mL)

HCC cell lines = HCC cell lines carrying amplified SLC29A2 vs non-amplified cells; FIG. 5A
Protocol: The cell proliferation and cell viability were detected by […] BLUE® reagent (DAL1100, Thermo Fisher) according to the manufacturer's instruction. […] BLUE® for incubation at 37° C. for 1 hour. The ALAMAR BLUB® fluorescence was excited at 560 nm and measured at 590 nm.

Stat3 = conditions: SLC29A2 ectopically expressing cells, FIG. 5D; for SLC29A2-induced Stat3 phosphorylation: 6B
SLC29A2 = experiment: Confocal microscopy of nuclear translocation; format: cell-based; conditions: FIG. 5E
Protocol: Cells were grown on glass slides. After washing with ice-cold PBS, cells were fixed with methanol, blocked with 5% BSA, and incubated with primary antibodies at 4° C. overnight. The slides were washed with PBS, and incubated with Alexa488 or AIexa594-conjugated secondary antibodies. The slides were then washed with PBS, stained with DAPI and mounted with Dako fluorescent mounting medium (#S3025, Dako). The immunostained cells were acquired by Zeiss LSM 700 laser-scanning microscope with 63X/1.4 objective. The images were analyzed with ZEN, AxioVision, and imagesJ software.

SLC29A2-expressing cells = experiment: Trans-well (Boyden chamber) migration assay; format: cell-based; conditions: SLC29A2 ectopically expressing cells; FIG. 5C
Protocol: A total of 1×10^4 cells were seeded in the upper chamber of 8 micron Boyden chamber insert (#MCEP24H48, Millipore) containing a serum-free medium. The inserts were then hanged on the 24-well plate containing a complete medium. After 16 hours, the non-migrated cells were wiped out and the migrated cells were fixed with methanol and stained with Liu's stain. The migrated cells were counted by ImageJ software.

late-stage HCC = conditions: cited from earlier work
[1] = test system: luciferase-carrying SK-hep1 cells
Protocol: All animal procedures were conducted under the approval of the institutional animal care and user committee of Academia Sinica. […] The luciferase activities were detected by the IVIS Image system every two weeks, and the images were analyzed with IVIS operating software.
The mice wore sacrificed 48 weeks after the tumor injection or before the tumors grew larger than allowed. The tumor samples were collected and fixed with 4% paraformaldehyde.

Compound	sensitivity of cells to dipyridamole (cell viability) (SK-hep1 cells; SK-hep1 cells expressing SLC29A2 vs control cells, FIG. 5B)	sensitivity of cells to dipyridamole (cell viability, IC50) (HCC cell lines)	cyclin D1 down-regulation (Stat3)	SLC29A2-induced Stat3 phosphorylation (Stat3)	SLC29A2-induced Stat3 phosphorylation (Stat3; listed as SLC29A2 inhibitor)	Stat3 nuclear translocation (SLC29A2)	nuclear translocation of SLC29A2 (SLC29A2)	trans-well migration (SLC29A2-expressing cells)	resistance of cells to sorafenib (cell viability) (SK-hep1 cells; SLC29A2 expressing cells vs control cells, FIG. 6A)	prolongation of overall survival (late-stage HCC; late-stage HCC patients who received sorafenib)	side effects (late-stage HCC; patients who received sorafenib)	body weight changes and toxicity to mice ([1]; mouse, in vivo)	tumor burden (IVIS) ([1]; oral gavage once a day, sorafenib 10 mg/kg/day, dipyridamole 25 mg/kg/day, 6 weeks after treatment, FIG. 6D)
OCCN(CCO)c1nc(N2CCCCC2)c2nc(N(CCO)CCO)nc(N3CCCCC3)c2n1 [dipyridamole]	sensitive to dipyridamole than control cells	sensitive to dipyridamole compared to non-amplified cells	down-regulation of cyclin D1 was reversed	inhibits the SLC29A2-induced Stat3 phosphorylation	decreased SLC29A2-induced Stat3 phosphorylation in a dosage-dependent manner	decreased SLC29A2 and Stat3 nuclear translocation	reduces the nuclear translocation of SLC29A2	reduced trans-well migration of SLC29A2-expressing cells	–	–	–	–	–
CNC(=O)c1cc(Oc2ccc(NC(=O)Nc3ccc(Cl)c(C(F)(F)F)c3)cc2)ccn1 [sorafenib]	–	–	–	–	–	–	–	–	much more resistant to sorafenib as compared to the control cells	3˜6 months	severe side effects	no significant body weight changes and toxicity	reduced the tumor burden in both SLC29A2-expressing and control groups
